Laboratory results published in the kinase profiling compilation of Christmann-Franck et al. (2016).
“And” between values parts separate entries of the source, which are not always exact repeats. Equal values may be shown once.

How the values were obtained:
Assay in all cases: radiometric filter-binding kinase assay, Kinaseprofiler
[1] = molecular target: CDK6 CCND3 (human) (UniProt P30281+Q00534); conditions: ATP 200 µM
[2] = molecular target: CDK7 CCNH MNAT1 (human) (UniProt P50613+P51948+P51946); conditions: ATP 90 µM
[3] = molecular target: CSNK2A1 CSNK2B CSNK2A2 (human) (UniProt P19784+P68400+P67870); conditions: ATP 15 µM
[4] = molecular target: DAPK1 (human) (UniProt P53355); conditions: ATP 70 µM
[5] = molecular target: EPHA2 (human) (UniProt P29317); conditions: ATP 155 µM
[6] = molecular target: FGFR2 (human) (UniProt P21802); conditions: ATP 90 µM
[7] = molecular target: GCK (human) (UniProt Q12851); conditions: ATP 200 µM
[8] = molecular target: GRK5 (human) (UniProt P34947); conditions: ATP 15 µM
[9] = molecular target: GRK6 (human) (UniProt P43250); conditions: ATP 45 µM
[10] = molecular target: INSR (human) (UniProt P06213)
INSR (human), sequence (P06213 whole entry, looked up): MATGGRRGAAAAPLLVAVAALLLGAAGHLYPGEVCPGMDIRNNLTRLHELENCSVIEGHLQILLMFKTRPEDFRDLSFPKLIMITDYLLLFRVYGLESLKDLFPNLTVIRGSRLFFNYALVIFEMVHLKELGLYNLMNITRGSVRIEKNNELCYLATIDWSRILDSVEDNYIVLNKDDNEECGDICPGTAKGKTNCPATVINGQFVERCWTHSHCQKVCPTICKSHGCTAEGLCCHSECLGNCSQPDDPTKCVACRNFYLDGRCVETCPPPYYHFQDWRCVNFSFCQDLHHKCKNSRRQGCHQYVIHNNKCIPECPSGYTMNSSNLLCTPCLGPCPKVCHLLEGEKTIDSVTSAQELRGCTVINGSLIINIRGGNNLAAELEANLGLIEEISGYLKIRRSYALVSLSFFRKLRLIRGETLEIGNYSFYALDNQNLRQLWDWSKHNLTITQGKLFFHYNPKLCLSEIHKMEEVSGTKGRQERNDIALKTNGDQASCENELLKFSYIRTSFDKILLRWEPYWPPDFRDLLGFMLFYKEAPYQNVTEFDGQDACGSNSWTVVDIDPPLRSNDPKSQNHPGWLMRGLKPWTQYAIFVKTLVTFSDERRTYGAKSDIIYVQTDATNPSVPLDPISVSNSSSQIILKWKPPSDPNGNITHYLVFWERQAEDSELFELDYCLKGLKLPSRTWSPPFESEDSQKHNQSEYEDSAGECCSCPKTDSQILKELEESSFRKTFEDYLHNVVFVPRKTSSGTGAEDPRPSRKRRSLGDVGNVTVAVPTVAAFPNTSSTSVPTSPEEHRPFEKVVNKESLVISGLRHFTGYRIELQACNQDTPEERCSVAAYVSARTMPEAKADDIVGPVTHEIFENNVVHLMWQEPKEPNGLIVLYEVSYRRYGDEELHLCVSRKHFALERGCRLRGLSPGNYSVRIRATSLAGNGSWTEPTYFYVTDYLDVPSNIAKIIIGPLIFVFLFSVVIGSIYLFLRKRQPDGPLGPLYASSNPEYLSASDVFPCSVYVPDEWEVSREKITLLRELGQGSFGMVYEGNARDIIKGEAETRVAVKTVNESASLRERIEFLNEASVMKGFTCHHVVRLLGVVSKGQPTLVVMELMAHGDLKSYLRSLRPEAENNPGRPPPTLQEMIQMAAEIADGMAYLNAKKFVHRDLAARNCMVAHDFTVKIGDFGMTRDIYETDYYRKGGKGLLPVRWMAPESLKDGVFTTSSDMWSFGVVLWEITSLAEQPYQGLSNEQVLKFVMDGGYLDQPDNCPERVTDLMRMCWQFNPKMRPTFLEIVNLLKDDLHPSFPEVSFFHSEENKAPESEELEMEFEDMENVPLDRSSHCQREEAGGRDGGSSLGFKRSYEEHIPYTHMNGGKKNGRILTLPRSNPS

[11] = molecular target: IRAK1 (human) (UniProt P51617); conditions: ATP 45 µM
[12] = molecular target: MAPK3 (human) (UniProt P27361); conditions: ATP 70 µM
[13] = molecular target: MKNK2 (human) (UniProt Q9HBH9); conditions: ATP 120 µM
[14] = molecular target: MST1R (human) (UniProt Q04912); conditions: ATP 70 µM
[15] = molecular target: MYLK (human) (UniProt Q15746); conditions: ATP 70 µM
[16] = molecular target: NEK7 (human) (UniProt Q8TDX7); conditions: ATP 45 µM
[17] = molecular target: PAK6 (human) (UniProt Q9NQU5); conditions: ATP 10 µM
[18] = molecular target: PASK (human) (UniProt Q96RG2); conditions: ATP 15 µM
[19] = molecular target: PDGFRA (human) (UniProt P16234); conditions: ATP 120 µM
PDGFRA (human), sequence (P16234 whole entry, looked up): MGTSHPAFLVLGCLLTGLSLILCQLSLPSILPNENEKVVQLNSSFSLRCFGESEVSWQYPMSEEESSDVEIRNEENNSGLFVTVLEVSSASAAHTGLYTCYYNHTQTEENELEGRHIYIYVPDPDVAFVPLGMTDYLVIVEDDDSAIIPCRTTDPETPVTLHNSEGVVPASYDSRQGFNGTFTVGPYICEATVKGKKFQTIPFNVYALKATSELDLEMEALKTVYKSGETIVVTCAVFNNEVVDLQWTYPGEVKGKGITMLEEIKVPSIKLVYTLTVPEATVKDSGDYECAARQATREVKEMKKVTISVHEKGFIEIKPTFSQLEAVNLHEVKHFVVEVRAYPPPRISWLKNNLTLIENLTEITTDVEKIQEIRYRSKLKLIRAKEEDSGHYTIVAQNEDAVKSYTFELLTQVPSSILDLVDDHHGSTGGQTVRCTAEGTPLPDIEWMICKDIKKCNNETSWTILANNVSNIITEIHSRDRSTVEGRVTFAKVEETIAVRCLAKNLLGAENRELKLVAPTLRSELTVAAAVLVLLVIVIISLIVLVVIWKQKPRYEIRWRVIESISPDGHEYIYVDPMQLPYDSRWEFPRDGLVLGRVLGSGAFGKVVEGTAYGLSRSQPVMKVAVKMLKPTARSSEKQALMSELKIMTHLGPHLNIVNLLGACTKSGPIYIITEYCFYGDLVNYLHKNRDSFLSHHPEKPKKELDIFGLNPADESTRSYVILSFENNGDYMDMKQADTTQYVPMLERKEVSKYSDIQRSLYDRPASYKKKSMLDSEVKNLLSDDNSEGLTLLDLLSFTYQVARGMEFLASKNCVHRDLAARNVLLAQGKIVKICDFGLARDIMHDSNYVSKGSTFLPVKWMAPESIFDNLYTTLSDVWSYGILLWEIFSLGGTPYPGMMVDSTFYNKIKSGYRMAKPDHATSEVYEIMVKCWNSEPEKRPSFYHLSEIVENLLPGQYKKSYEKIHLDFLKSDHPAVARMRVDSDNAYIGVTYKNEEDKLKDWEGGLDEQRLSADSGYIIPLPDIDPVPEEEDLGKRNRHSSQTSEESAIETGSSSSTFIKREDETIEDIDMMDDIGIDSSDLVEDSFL

[20] = molecular target: PDGFRB (human) (UniProt P09619); conditions: ATP 200 µM
[21] = molecular target: PLK1 (human) (UniProt P53350); conditions: ATP 70 µM
[22] = molecular target: PRKG1 (human) (UniProt Q13976); conditions: ATP 90 µM
PRKG1 (human), sequence (Q13976 whole entry, looked up): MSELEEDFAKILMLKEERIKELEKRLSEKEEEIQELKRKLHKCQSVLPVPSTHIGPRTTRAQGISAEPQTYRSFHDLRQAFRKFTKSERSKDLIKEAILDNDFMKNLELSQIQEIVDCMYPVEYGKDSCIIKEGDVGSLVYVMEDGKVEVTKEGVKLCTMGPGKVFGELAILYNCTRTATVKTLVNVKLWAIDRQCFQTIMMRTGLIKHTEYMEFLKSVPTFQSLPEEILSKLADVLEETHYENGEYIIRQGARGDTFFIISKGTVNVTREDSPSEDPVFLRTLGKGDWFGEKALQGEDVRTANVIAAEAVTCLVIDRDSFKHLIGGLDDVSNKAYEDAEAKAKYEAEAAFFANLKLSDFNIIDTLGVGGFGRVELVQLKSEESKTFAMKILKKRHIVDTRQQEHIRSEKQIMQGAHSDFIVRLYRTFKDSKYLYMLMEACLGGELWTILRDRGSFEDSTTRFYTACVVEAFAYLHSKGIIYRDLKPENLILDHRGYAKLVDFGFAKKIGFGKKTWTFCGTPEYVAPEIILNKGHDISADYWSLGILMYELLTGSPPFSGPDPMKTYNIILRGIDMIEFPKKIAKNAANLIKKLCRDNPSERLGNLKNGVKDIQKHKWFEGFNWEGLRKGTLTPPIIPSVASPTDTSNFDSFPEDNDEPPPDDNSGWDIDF

[23] = molecular target: PTK2B (human) (UniProt Q14289); conditions: ATP 90 µM
[24] = molecular target: PTK6 (human) (UniProt Q13882); conditions: ATP 15 µM
[25] = molecular target: RIPK2 (human) (UniProt O43353); conditions: ATP 120 µM
[26] = molecular target: RPS6KA2 KD1 KD2 (human) (UniProt Q15349); conditions: ATP 10 µM
RPS6KA2 KD1 KD2 (human), sequence (Q15349 whole entry, looked up): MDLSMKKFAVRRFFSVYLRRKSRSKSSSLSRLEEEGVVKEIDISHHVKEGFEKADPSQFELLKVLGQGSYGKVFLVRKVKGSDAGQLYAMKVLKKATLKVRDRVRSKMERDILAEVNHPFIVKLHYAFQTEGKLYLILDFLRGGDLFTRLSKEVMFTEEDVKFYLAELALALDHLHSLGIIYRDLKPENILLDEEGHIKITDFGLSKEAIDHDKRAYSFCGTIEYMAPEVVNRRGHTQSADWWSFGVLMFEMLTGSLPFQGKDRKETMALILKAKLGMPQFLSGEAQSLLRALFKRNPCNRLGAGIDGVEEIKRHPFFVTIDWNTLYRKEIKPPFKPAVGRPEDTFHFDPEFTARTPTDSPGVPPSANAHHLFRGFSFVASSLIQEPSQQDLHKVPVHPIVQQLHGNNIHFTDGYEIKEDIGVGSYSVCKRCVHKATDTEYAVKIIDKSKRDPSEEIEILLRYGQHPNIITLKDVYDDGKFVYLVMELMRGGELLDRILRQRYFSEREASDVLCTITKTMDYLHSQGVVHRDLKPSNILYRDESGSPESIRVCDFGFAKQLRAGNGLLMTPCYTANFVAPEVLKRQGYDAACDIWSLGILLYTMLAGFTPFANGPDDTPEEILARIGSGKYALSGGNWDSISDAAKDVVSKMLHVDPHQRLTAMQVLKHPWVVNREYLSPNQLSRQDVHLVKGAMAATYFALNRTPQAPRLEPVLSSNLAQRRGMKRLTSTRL

[27] = molecular target: RPS6KA5 KD1 KD2 (human) (UniProt O75582); conditions: ATP 90 µM
[28] = molecular target: STK10 (human) (UniProt O94804); conditions: ATP 200 µM
STK10 (human), sequence (O94804 whole entry, looked up): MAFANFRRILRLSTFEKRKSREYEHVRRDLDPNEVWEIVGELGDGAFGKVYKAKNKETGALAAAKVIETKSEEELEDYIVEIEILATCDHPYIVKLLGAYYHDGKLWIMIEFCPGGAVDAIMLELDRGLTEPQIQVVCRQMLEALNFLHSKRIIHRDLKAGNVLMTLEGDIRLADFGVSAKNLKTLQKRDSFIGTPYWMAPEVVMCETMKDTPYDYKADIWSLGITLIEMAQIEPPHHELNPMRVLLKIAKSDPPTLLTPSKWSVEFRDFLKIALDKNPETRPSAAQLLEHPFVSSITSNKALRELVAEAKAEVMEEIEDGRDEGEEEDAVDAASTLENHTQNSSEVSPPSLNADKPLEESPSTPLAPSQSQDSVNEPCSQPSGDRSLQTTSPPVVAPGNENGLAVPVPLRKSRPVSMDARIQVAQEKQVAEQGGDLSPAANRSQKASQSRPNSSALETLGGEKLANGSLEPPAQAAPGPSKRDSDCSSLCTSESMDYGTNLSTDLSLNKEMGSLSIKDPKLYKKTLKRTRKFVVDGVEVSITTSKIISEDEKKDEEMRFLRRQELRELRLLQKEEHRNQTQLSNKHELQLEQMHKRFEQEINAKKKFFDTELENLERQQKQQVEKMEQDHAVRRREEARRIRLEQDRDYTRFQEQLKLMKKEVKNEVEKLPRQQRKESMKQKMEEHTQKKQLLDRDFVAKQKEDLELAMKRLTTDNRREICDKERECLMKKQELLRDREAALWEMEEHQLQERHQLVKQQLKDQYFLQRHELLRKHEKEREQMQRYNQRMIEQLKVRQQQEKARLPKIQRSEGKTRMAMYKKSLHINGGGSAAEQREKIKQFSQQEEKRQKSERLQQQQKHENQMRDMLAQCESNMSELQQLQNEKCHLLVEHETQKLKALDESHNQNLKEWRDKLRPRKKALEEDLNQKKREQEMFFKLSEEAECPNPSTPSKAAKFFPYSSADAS

[29] = molecular target: TAOK1 (human) (UniProt Q7L7X3); conditions: ATP 10 µM
[30] = molecular target: TAOK2 (human) (UniProt Q9UL54); conditions: ATP 15 µM
[31] = tested on: TEK (human), Q02763 [Q939H/Q940H]; conditions: ATP 200 µM
[32] = molecular target: TSSK2 (human) (UniProt Q96PF2); conditions: ATP 15 µM

O=C1c2ccccc2-c2n[nH]c3cccc1c23
residual activity ([1]; compound 1.0 µM): 76%
residual activity ([1]; compound 10.0 µM): 31%
residual activity ([2]; compound 1.0 µM): 75%
residual activity ([2]; compound 10.0 µM): 24%
residual activity ([3]; compound 1.0 µM): 60%
residual activity ([3]; compound 10.0 µM): 19%
residual activity ([4]; compound 1.0 µM): 91%
residual activity ([4]; compound 10.0 µM): 68%
residual activity ([5]; compound 1.0 µM): 88%
residual activity ([5]; compound 10.0 µM): 60%
residual activity ([6]; compound 1.0 µM): 52%
residual activity ([6]; compound 10.0 µM): 12%
residual activity ([7]; compound 1.0 µM): 16%
residual activity ([7]; compound 10.0 µM): 2%
residual activity ([8]; compound 1.0 µM): 84%
residual activity ([8]; compound 10.0 µM): 63%
residual activity ([9]; compound 1.0 µM): 87%
residual activity ([9]; compound 10.0 µM): 81%
residual activity ([10]; compound 1.0 µM, ATP 45 µM): 70%
residual activity ([10]; compound 1.0 µM, ATP 200 µM): 81%
residual activity ([10]; compound 10.0 µM, ATP 45 µM): 26%
residual activity ([10]; compound 10.0 µM, ATP 200 µM): 47%
residual activity ([11]; compound 1.0 µM): 69%
residual activity ([11]; compound 10.0 µM): 42%
residual activity ([12]; compound 1.0 µM): 59%
residual activity ([12]; compound 10.0 µM): 72%
residual activity ([13]; compound 1.0 µM): 43%
residual activity ([13]; compound 10.0 µM): 10%
residual activity ([14]; compound 1.0 µM): 78%
residual activity ([14]; compound 10.0 µM): 51%
residual activity ([15]; compound 1.0 µM): 29%
residual activity ([15]; compound 10.0 µM): 3%
residual activity ([16]; compound 1.0 µM): 99%
residual activity ([16]; compound 10.0 µM): 89%
residual activity ([17]; compound 1.0 µM): 91%
residual activity ([17]; compound 10.0 µM): 49%
residual activity ([18]; compound 1.0 µM): 125%
residual activity ([18]; compound 10.0 µM): 81%
residual activity ([19]; compound 1.0 µM): 108%
residual activity ([19]; compound 10.0 µM): 86%
residual activity ([20]; compound 1.0 µM): 99%
residual activity ([20]; compound 10.0 µM): 96%
residual activity ([21]; compound 1.0 µM): 69%
residual activity ([21]; compound 10.0 µM): 64%
residual activity ([22]; compound 1.0 µM): 90% and 79%
residual activity ([22]; compound 10.0 µM): 60% and 79%
residual activity ([23]; compound 1.0 µM): 68%
residual activity ([23]; compound 10.0 µM): 23%
residual activity ([24]; compound 1.0 µM): 95%
residual activity ([24]; compound 10.0 µM): 95%
residual activity ([25]; compound 1.0 µM): 70%
residual activity ([25]; compound 10.0 µM): 52%
residual activity ([26]; compound 1.0 µM): 58%
residual activity ([26]; compound 10.0 µM): 22%
residual activity ([27]; compound 1.0 µM): 93%
residual activity ([27]; compound 10.0 µM): 69%
residual activity ([28]; compound 1.0 µM): 87%
residual activity ([28]; compound 10.0 µM): 62%
residual activity ([29]; compound 1.0 µM): 69%
residual activity ([29]; compound 10.0 µM): 25%
residual activity ([30]; compound 1.0 µM): 101%
residual activity ([30]; compound 10.0 µM): 69%
residual activity ([31]; compound 1.0 µM): 95%
residual activity ([31]; compound 10.0 µM): 63%
residual activity ([32]; compound 1.0 µM): 92%
residual activity ([32]; compound 10.0 µM): 86%
